In this experiment the target is T1, mouse AChE (Mus musculus, UniProt P21836).
T1 sequence (P21836 32-614): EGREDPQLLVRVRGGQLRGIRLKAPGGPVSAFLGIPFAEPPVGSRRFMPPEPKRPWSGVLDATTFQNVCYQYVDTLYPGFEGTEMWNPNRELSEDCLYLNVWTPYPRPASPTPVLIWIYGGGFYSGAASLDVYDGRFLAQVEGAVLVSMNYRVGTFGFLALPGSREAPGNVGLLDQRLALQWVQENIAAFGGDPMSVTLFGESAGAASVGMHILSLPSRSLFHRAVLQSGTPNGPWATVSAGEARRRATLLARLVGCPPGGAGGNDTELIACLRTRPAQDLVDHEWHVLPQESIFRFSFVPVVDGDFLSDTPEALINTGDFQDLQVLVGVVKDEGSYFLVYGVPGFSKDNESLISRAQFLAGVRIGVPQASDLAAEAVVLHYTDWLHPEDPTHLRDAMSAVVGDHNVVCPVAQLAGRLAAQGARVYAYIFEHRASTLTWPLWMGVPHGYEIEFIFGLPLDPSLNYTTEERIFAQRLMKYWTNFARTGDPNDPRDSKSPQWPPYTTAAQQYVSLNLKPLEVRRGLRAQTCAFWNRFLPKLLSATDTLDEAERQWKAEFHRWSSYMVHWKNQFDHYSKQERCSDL
As to the kind of experiment: AChE inhibition, spectrophotometric Ellman's method on purified recombinant enzyme. The following applies: 1 mM acetylthiocholine iodide, pH 7.4.

Procedure: Mouse AChE was expressed in HEK293 F cells and purified as previously reported.3 The activity
of AChE was measured using the Ellman assay adaped to a 96-well plate format.4 The
acetylthiocholine iodide was 1 mM. The measurements were performed in 0.1 M phosphate
Determination of IC50 values for the compounds
inhibition of AChE was performed as previously reported.6 At least 5 replicate IC50 determinations at 8
inhibitor concentrations were performed for each compound. The obtained dose-response curve was
fitted using the response variable slope versus log(inhibitor concentration) equation (four parameters) in
GraphPad Prism software 5.0.

In the case of `Cc1c(C)c2ccc(OCC3CCCN(Cc4ccccc4)C3)cc2oc1=O` (single isomer, unassigned; (+)) [(+)-2, 7-[(1-benzylpiperidin-3-yl)methoxy]-3,4-dimethyl-2H-chromen-2-one], the concentration for half-maximal inhibition (IC50) is 1500 ± 100 nM.
For `Cc1c(C)c2ccc(OCC3CCCN(Cc4ccccc4)C3)cc2oc1=O` (single isomer, unassigned; (-)) [(−)-2, 7-[(1-benzylpiperidin-3-yl)methoxy]-3,4-dimethyl-2H-chromen-2-one], the IC50 was determined as 700 ± 50 nM.

For the origin of these results see publication PMC8919507, “Dual Reversible Coumarin Inhibitors Mutually Bound to Monoamine Oxidase B and Acetylcholinesterase Crystal Structures” (ACS Medicinal Chemistry Letters, 2022).
